From patent US10829520B2, “Beta-hairpin peptidomimetics” (POLYPHOR AG, priority 2015, dated 2020)
Where a SMILES comes first, the peptide text is derived from it. Bridges are numbered along the chain shown (N, C = ends). [ ]: non-standard residue; d: D form. The star is where a group is joined. NαAmidinoTrp = N=C(N)N[C@@H](Cc1c[nH]c2ccccc12)C(=O)*; Ala(cPent) = N[C@@H](CC1CCCC1)C(=O)O; Pen = CC(C)(S)[C@H](N)C(=O)O; Tle = CC(C)(C)[C@H](N)C(=O)O; dDab = NCC[C@@H](N)C(=O)O; Nle = CCCC[C@H](N)C(=O)O; Orn = NCCC[C@H](N)C(=O)O; Dab = NCC[C@H](N)C(=O)O; Sar = CNCC(=O)O

Assays:
Assay type in all cases: cell-based
[1] = system: human red blood cells (hRBC); experiment: Hemolysis of human red blood cells; settings: red cells of human, 1 h
Experimental: (§1) Lyophilized peptides were weighed on a Microbalance (Mettler MT5) and dissolved in sterile water to a final concentration of 1 mg/mL. Stock solutions were kept at +4° C., light protected.
The peptides were tested for their hemolytic activity against human red blood cells (hRBC). Fresh hRBC were washed three times with phosphate buffered saline (PBS) and centrifuged for 10 min at 2000×g. Compounds (100 μg/mL) were incubated with 20% hRBC (v/v) for 1 h at 37° C. and shaking at 300 rpm. The final erythrocyte concentration was approximately 0.9×10^9 cells/mL. A value of 0% and 100% cell lyses, respectively, was determined by incubation of hRBC in the presence of PBS containing 0.001% acetic acid and 2.5% Triton X-100 in H2O, respectively. The samples were centrifuged, the supernatants were 8-fold diluted in PBS buffer and the optical densities (OD) were measured at 540 nm. The 100% lyses value (OD540H2O) gave an OD540 of approximately 0.5-1.0.
Percent hemolysis was calculated as follows: (OD540peptide/OD540H2O)×100%.

[2] = system: Pseudomonas aeruginosa ATCC 27853; settings: ATCC 27853
Experimental: as §1
(§2) The in vitro antimicrobial activities of the peptides were determined in 96-well plates (Greiner, polystyrene) by the standard CLSI broth microdilution method (Clinical and Laboratory Standards Institute 2014. Performance standards for antimicrobial susceptibility testing, 24th informational supplement. Approved standard CLSI M100-S24; Clinical and Laboratory Standards Institute, Wayne, Pa.). Inocula of the microorganisms were diluted into Mueller-Hinton II (MH-cation adjusted) broth and compared with a 0.5 McFarland standard to give appr. 10^6 colony forming units (CFU)/mL. Aliquots (90 μL) of inoculate were added to 10 μL of MH-II broth+P-80 (Polysorbate 80, 0.002% final concentration, v/v) containing the peptide in serial two-fold dilutions. The following microorganisms were used to determine antibiotic activity of the peptides: Escherichia coli ATCC 25922, Klebsiella pneumoniae SSI #3010^a), Acinetobacter baumannii DSM 30008, Pseudomonas aeruginosa ATCC 27853 and the clinical isolates Escherichia coli 926415^b), Klebsiella pneumoniae 968733^b) and Acinetobacter baumannii 872842^b). Antimicrobial activities of the peptides were expressed as the minimal inhibitory concentration (MIC) in μg/mL at which no visible growth was observed after 18-20 hours of incubation at 35° C. ^a) Obtained from Statens Serum Institut (SSI), Copenhagen, Denmark^b) Obtained from International Health Management Associates, Inc. (IHMA Europe Sàrl), Epalinges, Switzerland

[3] = system: Acinetobacter baumannii DSM 30008; settings: DSM 30008
Experimental: as §1, §2

[4] = system: Escherichia coli ATCC 25922; settings: ATCC 25922
Experimental: as §1, §2

[5] = system: Klebsiella pneumoniae SSI #3010; settings: SSI #3010
Experimental: as §1, §2

Structure (SMILES) | Hemolysis at 100 μg/mL ([1]; 100 μg/mL) [%] | Pseudomonas aeruginosa ATCC 27853 MIC [2] [µg/mL] | Acinetobacter baumannii DSM 30008 MIC [3] [µg/mL] | Escherichia coli ATCC 25922 MIC [4] [µg/mL] | Klebsiella pneumoniae SSI #3010 MIC [5] [µg/mL] | Hemolysis at 100 μg/mL [1]; 100 [%]
CC(C)C[C@@H]1NC(=O)[C@H](CCCNC(=N)N)NC(=O)[C@@H](CCN)NC(=O)[C@H](C(C)C)NC(=O)[C@@H](NC(=O)[C@H](Cc2ccc(O)cc2)NC(=O)[C@H](CCN)NC(=O)[C@@H](N)Cc2c[nH]c3ccccc23)CSSC[C@@H](C(=O)N[C@@H](Cc2ccc(O)cc2)C(=O)N[C@@H](CCN)C(=O)NCC(=O)N[C@@H](CCN)C(=O)N[C@H](C(=O)N[C@@H](CCN)C(=O)N[C@H]2CCNC(=O)[C@H]([C@@H](C)O)NC(=O)[C@H](CCN)NC(=O)[C@H](CCN)NC(=O)[C@H](CC(C)C)NC(=O)[C@@H](CC(C)C)NC(=O)[C@H](CCN)NC2=O)[C@@H](C)O)NC1=O [Ex. 166] (H-W[Dab]YCV[dDab]RLCY[Dab]G[Dab]T[Dab][Dab][Dab][dL]L[Dab][Dab]T; disulfide 4-9; lactam 16-C) | 3 | 2 | 2 | 2 | 2 | 
CC(C)C[C@@H]1NC(=O)[C@@H](CC(C)C)NC(=O)[C@H](CCN)NC(=O)[C@@H](NC(=O)[C@H](CCN)NC(=O)[C@@H](NC(=O)[C@H](CCN)NC(=O)CNC(=O)[C@H]2NC(=O)[C@H](Cc3ccc(O)cc3)NC(=O)[C@H](CO)NC(=O)[C@H](CC(C)C)NC(=O)[C@@H]3CCCN3C(=O)[C@H]3CCCN3C(=O)[C@H](CO)NC(=O)[C@H](C)NC(=O)[C@H](C(C)C)NC(=O)[C@@H](NC(=O)[C@H](Cc3c[nH]c4ccccc34)NC(=N)N)C(C)(C)SSC2(C)C)[C@@H](C)O)CCNC(=O)[C@H]([C@@H](C)O)NC(=O)[C@H](CCN)NC(=O)[C@H](CCN)NC1=O [Ex. 174] (NαAmidinoTrp-[Pen]VAS[dP]PLSY[Pen]G[Dab]T[Dab][Dab][Dab][dL]L[Dab][Dab]T; disulfide 1-10; lactam 15-C) | 1 | 2 | 0.5 | 0.25 | 0.5 | 
CC(C)C[C@@H]1NC(=O)[C@@H](CC(C)C)NC(=O)[C@H](CCN)NC(=O)[C@@H](NC(=O)[C@H](CCN)NC(=O)[C@@H](NC(=O)[C@H](CCN)NC(=O)CN(C)C(=O)[C@@H]2CSSC[C@H](NC(=O)[C@@H](N)Cc3c[nH]c4ccccc34)C(=O)N[C@@H](C(C)C)C(=O)N[C@@H](C)C(=O)N[C@@H](CO)C(=O)N3CCC[C@@H]3C(=O)N3CCC[C@H]3C(=O)N[C@@H](CC(C)C)C(=O)N[C@@H](CO)C(=O)N[C@@H](Cc3ccc(O)cc3)C(=O)N2)[C@@H](C)O)CCNC(=O)[C@@H](C(C)C)NC(=O)[C@H](CCN)NC(=O)[C@H](CCN)NC1=O [Ex. 180] (H-WCVAS[dP]PLSYC[Sar][Dab]T[Dab][Dab][Dab][dL]L[Dab][Dab][dV]; disulfide 2-11; lactam 16-C) | <1 | 1 | 0.25 | 0.125 | 0.125 | 
CC(C)C[C@@H]1NC(=O)[C@@H](CC(C)C)NC(=O)[C@H](CCN)NC(=O)[C@@H](NC(=O)[C@H](CCN)NC(=O)[C@@H](NC(=O)[C@H](CCN)NC(=O)CN(C)C(=O)[C@@H]2CSSC[C@H](NC(=O)[C@@H](N)Cc3c[nH]c4ccccc34)C(=O)N[C@@H](C(C)C)C(=O)N[C@@H](C)C(=O)N[C@@H](CO)C(=O)N3CCC[C@@H]3C(=O)N3CCC[C@H]3C(=O)N[C@@H](CC(C)C)C(=O)N[C@@H](CO)C(=O)N[C@@H](Cc3ccc(O)cc3)C(=O)N2)[C@@H](C)O)CCNC(=O)[C@H](CCCNC(=N)N)NC(=O)[C@H](CCN)NC(=O)[C@H](CCN)NC1=O [Ex. 181] (H-WCVAS[dP]PLSYC[Sar][Dab]T[Dab][Dab][Dab][dL]L[Dab][Dab]R; disulfide 2-11; lactam 16-C) | <1 | 0.5 | 0.125 | 0.0625 | 0.125 | 
CC(C)C[C@@H]1NC(=O)[C@@H](CC(C)C)NC(=O)[C@H](CCN)NC(=O)[C@@H](NC(=O)[C@H](CCN)NC(=O)[C@@H](NC(=O)[C@H](CCN)NC(=O)CN(C)C(=O)[C@@H]2CSSC[C@H](NC(=O)[C@@H](N)Cc3c[nH]c4ccccc34)C(=O)N[C@@H](C(C)C)C(=O)N[C@@H](C)C(=O)N[C@@H](CO)C(=O)N3CCC[C@@H]3C(=O)N3CCC[C@H]3C(=O)N[C@@H](CC(C)C)C(=O)N[C@@H](CO)C(=O)N[C@@H](Cc3ccc(O)cc3)C(=O)N2)[C@@H](C)O)CCNC(=O)[C@@H](CCCNC(=N)N)NC(=O)[C@H](CCN)NC(=O)[C@H](CCN)NC1=O [Ex. 182] (H-WCVAS[dP]PLSYC[Sar][Dab]T[Dab][Dab][Dab][dL]L[Dab][Dab][dR]; disulfide 2-11; lactam 16-C) | 1 | 4 | 0.75 | 0.5 | 0.5 | 
CC(C)C[C@@H]1NC(=O)[C@@H](Cc2ccccc2)NC(=O)[C@H](CCN)NC(=O)[C@@H](NC(=O)[C@H](CCN)NC(=O)[C@H](CCCN)NC(=O)[C@@H]2CSSC[C@H](NC(=O)[C@H](Cc3c[nH]c4ccccc34)NC(=O)CN)C(=O)N[C@@H](C(C)(C)C)C(=O)N[C@@H](C)C(=O)N[C@@H](CO)C(=O)N3CCC[C@@H]3C(=O)N3CCC[C@H]3C(=O)N[C@@H](CC3CCCC3)C(=O)N[C@@H](CO)C(=O)N[C@@H](Cc3ccc(O)cc3)C(=O)N2)CCNC(=O)[C@H]([C@@H](C)O)NC(=O)[C@H](CCN)NC(=O)[C@H](CCN)NC1=O [Ex. 183] (H-GWC[Tle]AS[dP]P[Ala(cPent)]SYC[Orn][Dab][Dab][Dab][dF]L[Dab][Dab]T; disulfide 3-12; lactam 15-C) | 2 | 0.5 | 0.25 | 0.125 | 0.125 | 
CCCC[C@@H]1NC(=O)[C@@H]2CCCN2C(=O)[C@H]2CCCN2C(=O)[C@H](CO)NC(=O)[C@H](C)NC(=O)[C@H](C(C)(C)C)NC(=O)[C@@H](NC(=O)[C@@H](N)Cc2c[nH]c3ccccc23)CCNC(=O)C[C@@H](C(=O)N[C@@H](CCCN)C(=O)N[C@@H](CCN)C(=O)N[C@H]2CCNC(=O)[C@H]([C@@H](C)O)NC(=O)[C@H](CCN)NC(=O)[C@H](CCN)NC(=O)[C@H](CC(C)C)NC(=O)[C@@H](Cc3ccccc3)NC(=O)[C@H](CCN)NC2=O)NC(=O)[C@H](Cc2ccc(O)cc2)NC(=O)[C@H](CO)NC1=O [Ex. 190] (H-W[Dab][Tle]AS[dP]P[Nle]SYD[Orn][Dab][Dab][Dab][dF]L[Dab][Dab]T; lactam 2-11, 14-C) |  | 1 | 0.5 | 0.5 | 0.5 | <1
